Each structure is given as a SMILES string.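 Each compound was tested at five concentrations against cells in 96-well plates for 48 hours. TGI: total growth inhibition.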 A value given as a limit tells only on which side of the number the result lay.

Test in all cases: inhibition of tumour cell growth, NCI panel, 48 h
For assay [1], the system named is ACHN renal.
For assay [2], the system named is BT-549 breast.
The test system of assay [3] is HCT-116 colon.
The test system of assay [4] is HT29 colon.
For assay [5], the system named is LOX IMVI melanoma.
Assay [6] deals with MDA-MB-231 breast.
The test system of assay [7] is NCI-H23 lung.
The test system of assay [8] is RXF 393 renal.
Assay [9] relates to SK-MEL-28 melanoma.
Assay [10] has as its system DMS 273 small cell lung.

Regarding `c1csc(-c2ccc(-c3ccc(-c4cccs4)s3)s2)c1`, the TGI in assay [1], in [2], in assay [3], in [4], in assay [5] and in assay [6] was over 100 µM each time. Moreover, the TGI in [7], in assay [8] and in assay [9] was over 100 µM each time.
As for `CC1=CC(c2ccccc2)n2c(nc3cc4ccccc4cc32)N1` (centres undefined), the TGI in assay [1], in assay [2], in assay [3], in [4], in assay [5] and in [6] was over 100 µM in each case. Besides, the TGI in [7], in assay [8] and in [9] was over 100 µM in each case.
Turning to `COC(=O)C(=O)C(C(=O)C(=O)Nc1ccccc1C(N)=O)c1nc2ccc(C(=O)c3ccccc3)cc2[nH]c1=O` (centres undefined), the TGI in assay [1], in assay [10], in assay [3], in [4], in [7] and in assay [8] was over 100 µM in each case. Moreover, in assay [9], the TGI is over 100 µM.
`CCCCCCCCC(=O)NCCCNCCCNC(=O)CCCCCCCC`: the TGI in assay [1] is 16.1 µM; in [10], 6.03 µM; in assay [3], 9.54 µM; in assay [4] it was 7.5 µM; in assay [5], 3.19 µM; in assay [7] it was 29.9 µM. The TGI in assay [8] is 21.7 µM; in assay [9], 25.6 µM.
For the compound `CCCCC(=C=C1CCCCC1O)C1CCCN1C(=O)OC(C)(C)C` (centres undefined), the TGI in assay [1] came to 29.2 µM; in [2] it was 35.4 µM; in assay [3] it was 27.3 µM; in assay [4], 27.3 µM; in assay [5] it was 32.3 µM; in [6], 30 µM. For the same compound, the TGI turned out to be 32.4 µM in [7], 27.1 µM in assay [8] and 29.6 µM in assay [9].
For the compound `COc1ccccc1OC/C(N=Cc1ccncc1)=N/NC(=O)c1ccncc1`, the TGI in assay [1], in [2], in assay [3], in assay [4], in assay [5] and in [6] was over 100 µM in each case. Further, the TGI in assay [7], in assay [8] and in assay [9] was over 100 µM each time.
On to `C[C@@H](C[C@@H](O)[C@H](O)C(C)(C)O)[C@H]1CC=C2[C@]3(C)[C@H](O)C[C@H]4C(C)(C)[C@H](O)CC[C@]4(C)[C@H]3CC[C@@]21C`, for which the TGI was found to be 27.4 µM in assay [1]; 31.1 µM in [2]; 34.7 µM in [3]; 26.2 µM in [4]; 30 µM in assay [5]; 27.4 µM in assay [6]. Also, the TGI in assay [7] was 33.6 µM; in assay [8] it was 35.7 µM; in [9], 28.5 µM.
With `COc1ccccc1NC(=O)C(=O)C1C(=O)Nc2ccccc2S1=O` (centres undefined), the TGI in assay [1], in assay [10], in assay [3], in assay [4], in assay [5] and in [7] was over 100 µM throughout. For the same compound, the TGI in [8] and in [9] was over 100 µM each time.
On to `O=C(O)c1ccccc1-c1ccccc1C(=O)c1ccccc1`, for which the TGI in assay [1], in assay [2], in assay [3], in [4], in assay [5] and in [6] was over 100 µM each time. Moreover, the TGI in assay [7], in [8] and in assay [9] was over 100 µM throughout.
For `CSc1nc2c(ncn2C2OCC(O)C(O)C2O)c(=O)[nH]1` (centres undefined), the TGI in [10], in [3], in [4], in assay [5], in [7] and in [8] was over 100 µM each time. The TGI in [9] is over 100 µM.
`O=C(CCN1CCCCC1CO)Nc1ccc2c(c1)C(=O)c1ccc(NC(=O)CCN3CCCCC3CO)cc1C2=O` (centres undefined): the TGI in assay [1] came out at 32 µM; in assay [10], 19.2 µM; in assay [3], 19.6 µM; in [4] it was 31.6 µM; in [5] it was 20.8 µM; in assay [7] it was 38.1 µM. The TGI came out at 7.45 µM in assay [8] and 28.4 µM in assay [9].
`CN(Cc1nc2c(N)nc(N)nc2nc1N)c1ccc(C(=O)NC(CCC(=O)O)C(=O)O)cc1` (centres undefined): the TGI in [1], in assay [2], in [3], in assay [4], in assay [5] and in assay [6] was over 100 µM throughout. Further, the TGI in [7], in [8] and in [9] was over 100 µM each time.
Turning to `COc1cc(O)c2c(c1)C(O)C(O)CC1OC1C(=O)/C=C/CC(C)OC2=O` (centres undefined), the TGI in assay [1] was found to be 17 µM; in [2] it was 6.1 µM; in [3], 12.2 µM; in assay [4] it was 10 µM; in [5], 16.2 µM; in assay [6], 16.1 µM. Further, the TGI in assay [7] amounted to 12 µM; in [8], 5.6 µM; in assay [9], 12 µM.
In the case of `Cc1cc(S(=O)(=O)NC(=NCC(=O)NN)NN)c(S)cc1Cl`, the TGI in assay [1], in assay [2], in assay [3], in [4], in [5] and in assay [6] was over 10 µM each time. Further, the TGI in assay [7], in [8] and in assay [9] was over 10 µM throughout.

The values above are taken from PubChem BioAssay (NCI).
